{
  "source": "patent EP3521435A1",
  "about": "“A HIGH STRINGENCY SELECTION SYSTEM FOR PROTEIN EXPRESSION IN PROLINE-AUXOTROPHIC CELLS” (Bayer AG, priority 2018, dated 2019)",
  "key": {"CHO-K1 cells [1]": {"tested_on": "CHO-K1 cells", "experiment": "Batch fermentation in shake flasks of human IgG1 expressing stable cell populations (Poros A-HPLC titer, viable cell density, viability)", "format": "cell-based, Chinese hamster", "details": "human IgG1, pJF1576, non-selecting conditions", "experimental": "(§1) To efficiently test the impact of different procedures on improving selection stringency, experimental testing in stable cell populations was performed. As test molecules, enhanced green fluorescent protein (GFP) as well as a human IgG1 were chosen. CHO-K1 cells adapted to growth in suspension in defined medium were obtained from SAFC and cultivated in EX-CELL CD CHO Fusion medium (SAFC 14365C). Custom-made EX-CELL CD CHO Fusion medium without L-Proline (Pro) and without L-Ornithine (Orn) (\"proline-free medium\") was obtained from SAFC. The expression vector system was based on modified versions of \"CET 1019 AS-puro-SceI\" and \"CET 1019 AD-puro-SceI\" for GFP and human IgG1, respectively, from Merck-Millipore, containing the Puromycin selection marker (Puromycin N-acetyl-transferase) known to exert a high selection stringency. To minimize variations in cell populations derived from using different transfections or different vectors, the first series of experiments were conducted using vectors into which a P5CS expression cassette was cloned upstream of a UCOE element, in addition to the Puromycin selection marker present downstream of a gene of interest. This way, it was possible to pool different transfections using the same vector to obtain a common starting point, and split the mixture according to different selection conditions, minimizing any variations that are not due to selection conditions themselves. Expression of long and short isoform of murine P5CS (Protein: Delta-1-pyrroline-5-carboxylate synthase; Gene: Aldh18a1; UniProtKB accession number: Q9Z110-1 & Q9Z110-2) was driven by a SV40 promoter. A SV40 polyadenylation sequence was used at the 3' end of the gene. More details can be found in Table 1. Typically, CHO cells were cultivated in EX-CELL CD CHO Fusion medium containing 6 mM GlutaMAX (Thermo Fisher, 35050-38) (\"CD-Fusion medium\") at 37 °C with 5% CO2. Cells were grown to logarithmic phase under shaking conditions for transfections. 1e7 cells/cuvette were transfected using nucleofection (Amaxa Nucleofector II, following the manufacturer's recommendations) with 5 µg of linearized DNA. After transfection, cells were taken up in 1 ml medium and transferred into 1 well of a 6 well microtiter plate (MTP) already containing 1 ml medium. The cells were incubated for 24 h without shaking, after which 9 ml medium were added and cells were washed (either in standard or proline-free medium). Multiple transfections were pooled, if applicable. Cells were adjusted to 2e5 viable cells/ml and 10 ml were transferred to T-25 flasks. Reference cell populations were selected using 10 µg/ml Puromycin in CD-Fusion medium. For P5CS-based selection, EX-CELL CD CHO Fusion medium (custom-made, SAFC) containing 6 mM GlutaMAX without proline and without ornithine was used (\"proline-free\" or \"CD-Fusion w/o Pro\" medium), with or without additional selection pressure.\n(§2) Cell viability of the different populations was monitored over time. As soon as cell populations appeared to recover from selection pressure, cells were transferred to Shake Flask or TubeSpins for expansion in suspension under shaking conditions. Subsequently, stable cell populations transfected with IgG were seeded at 2e5 viable cells/ml for batch fermentation without selection pressure (i.e. standard CD-Fusion medium containing proline and no other selective agents). The cells were cultivated for 5-10 days, viable cell densities and productivity were monitored over time. IgG titers were determined using Poros A-HPLC method. Typically, final batch titers were recorded at a time point at which majority of cultures had around 70% viability. Stable cell populations transfected with GFP vector were subjected to analysis by flow cytometry using Guava easyCyte 8HT Benchtop Flow Cytometer (Millipore). 250 µl of cell culture were transferred to 96 MTP and washed with PBS. Dead cells were excluded from analysis using propidium iodide (PI). […]"}, "CHO-K1 cells [2]": {"tested_on": "CHO-K1 cells", "experiment": "Cell viability post-transfection of transfected cell populations under selection conditions", "format": "cell-based, Chinese hamster", "experimental": "as §1, §2"}, "[3]": {"details": "MOCK, CD-Fusion w/o Pro + 5 mM Orn"}},
  "data": [
    {"smiles": "NCCC[C@H](N)C(=O)O", "note": "[Orn, L-Ornithine]", "values": [
      {"measurement": "Batch titer day 7", "setting": "CHO-K1 cells [1]; selected in CD-Fusion w/o Pro + 0.2 mM Orn + 10 µg/ml Puromycin", "value": 173, "unit": "mg/L"},
      {"measurement": "Batch titer day 7", "setting": "CHO-K1 cells [1]; selected in CD-Fusion w/o Pro + 0.2 mM Orn", "value": 120, "unit": "mg/L"},
      {"measurement": "Batch titer day 7", "setting": "CHO-K1 cells [1]; selected in CD-Fusion w/o Pro + 1 mM Orn + 10 µg/ml Puromycin", "value": 159, "unit": "mg/L"},
      {"measurement": "Batch titer day 7", "setting": "CHO-K1 cells [1]; selected in CD-Fusion w/o Pro + 1 mM Orn", "value": 135, "unit": "mg/L"},
      {"measurement": "Batch titer day 7", "setting": "CHO-K1 cells [1]; selected in CD-Fusion w/o Pro + 5 mM Orn + 10 µg/ml Puromycin", "value": 38, "unit": "mg/L"},
      {"measurement": "Batch titer day 7", "setting": "CHO-K1 cells [1]; selected in CD-Fusion w/o Pro + 5 mM Orn", "value": 9, "unit": "mg/L"},
      {"measurement": "Viability on day 12 post-transfection", "setting": "CHO-K1 cells [2]; [3]", "value": 45, "unit": "%"},
      {"measurement": "Viability on day 14 post-transfection", "setting": "CHO-K1 cells [2]; [3]", "value": 43, "unit": "%"},
      {"measurement": "Viability on day 14 post-transfection", "setting": "CHO-K1 cells [2]; pJF1555, CD-Fusion w/o Pro + 0.2 mM Orn", "value": 83, "unit": "%"},
      {"measurement": "Viability on day 14 post-transfection", "setting": "CHO-K1 cells [2]; pJF1555, CD-Fusion w/o Pro + 0.2 mM Orn + 10 µg/ml Puromycin", "value": 73, "unit": "%"},
      {"measurement": "Viability on day 12 post-transfection", "setting": "CHO-K1 cells [2]; pJF1555, CD-Fusion w/o Pro + 0.25 mM Ornithine", "value": 88, "unit": "%"},
      {"measurement": "Viability on day 12 post-transfection", "setting": "CHO-K1 cells [2]; pJF1555, CD-Fusion w/o Pro + 0.5 mM Ornithine", "value": 87, "unit": "%"},
      {"measurement": "Viability on day 14 post-transfection", "setting": "CHO-K1 cells [2]; pJF1555, CD-Fusion w/o Pro + 1 mM Orn", "value": 87, "unit": "%"},
      {"measurement": "Viability on day 14 post-transfection", "setting": "CHO-K1 cells [2]; pJF1555, CD-Fusion w/o Pro + 1 mM Orn + 10 µg/ml Puromycin", "value": 75, "unit": "%"},
      {"measurement": "Viability on day 12 post-transfection", "setting": "CHO-K1 cells [2]; pJF1555, CD-Fusion w/o Pro + 1 mM Ornithine", "value": 91, "unit": "%"},
      {"measurement": "Viability on day 12 post-transfection", "setting": "CHO-K1 cells [2]; pJF1555, CD-Fusion w/o Pro + 2 mM Ornithine", "value": 49, "unit": "%"},
      {"measurement": "Viability on day 12 post-transfection", "setting": "CHO-K1 cells [2]; pJF1555, CD-Fusion w/o Pro + 3 mM Ornithine", "value": 36, "unit": "%"},
      {"measurement": "Viability on day 12 post-transfection", "setting": "CHO-K1 cells [2]; pJF1555, CD-Fusion w/o Pro + 4 mM Ornithine", "value": 55, "unit": "%"},
      {"measurement": "Viability on day 14 post-transfection", "setting": "CHO-K1 cells [2]; pJF1555, CD-Fusion w/o Pro + 5 mM Orn", "value": 51, "unit": "%"},
      {"measurement": "Viability on day 14 post-transfection", "setting": "CHO-K1 cells [2]; pJF1555, CD-Fusion w/o Pro + 5 mM Orn + 10 µg/ml Puromycin", "value": 13, "unit": "%"},
      {"measurement": "Viability on day 12 post-transfection", "setting": "CHO-K1 cells [2]; pJF1555, CD-Fusion w/o Pro + 5 mM Ornithine", "value": 53, "unit": "%"},
      {"measurement": "concentration at which recovery kinetics were affected", "setting": "CHO-K1 cells [2]; pJF1555, proline-free medium, Table 8", "value": "≥ 2", "unit": "mM"}
    ]}
  ]
}
